Laboratory results from patent US20180126048A1, “NANOPARTICLE-MEDICATED GENETIC DELIVERY OF GROWTH INHIBITING GENES ON BALLOON ANGIOPLASTY TO SUPPRESS INTIMAL HYPERPLASIA” (Board of Education of the Vocational Schools in the County …, priority 2014, published 2018).

Test system: left carotid artery
Assay: Glycerol infusion into the artery (cannulation) during carotid injury surgery
Type: in vivo, rat
Settings: glycerol infused into the artery, compared to glycerol coated on a balloon
Experimental: In total, nine surgeries were performed on nine separate rats. The initial two surgeries represented the first control group—standard left carotid artery injury surgeries. The next two surgeries comprised the second control group—rats which received a standard left carotid artery injury surgery, modified slightly to include a glycerol coating without nanoparticles-carried plasmids on the catheter to test whether or not the substance (without the shRNA-encoding plasmid) had any noteworthy effects on the artery and/or the overall health of the animal before the nanoparticle treatment was delivered. The balloon was immersed in glycerol until 100 μL had covered its surface. Another two surgeries served as an experimental group to compare the method of delivery with the glycerol-coated balloon to a more direct method of delivery: infusion. After the arteriotomy was performed, the artery was cannulated (filled) with a syringe of 100 μL of 50% glycerol and flushed. The procedure then proceeded as previously described. The last three surgeries served as the experimental group utilizing the nanoparticles suspended in the glycerol that coated the balloon.
Intimal hyperplasia was further quantified using a software program, Image J, developed by the National Institutes of Health, which calculates the intimal area through image analysis. […]

**Q.** With `OCC(O)CO` [glycerol] as the molecule, how does the “blood clot formation after infusion” value read?
**A.** blood clot formation
